Here are results for 19 molecules from patent publication US5036059A, “1,4-Dihydropyridine-3-carboxylate derivatives” (Nippon Shinyaku Company, Limited, priority 1984, dated 1991).

Each structure is given as a SMILES string.

The test system of experiment [1] is guinea pig heart. Description: Coronary vasodilating action, constant pressure perfusion of isolated guinea pig heart (Langendorff). To be noted: Cavia porcellus, via coronary artery, read-out: Perfusion Increasing Rate; for activation at 0.001 mg: 10^-6 gram/heart; for activation at 0.0001 mg: 10^-7 gram/heart. Here is the method:
Constant pressure perfusion samples of guinea pig heart isolated by a method according to Langendorff were treated with the present invention compounds by administration via coronary artery and the effect was examined (Table 1).
With reference to coronary vasodilating action of diltiazem measured by the same method, the increasing rates in perfusion by administration of 10^-7, 10^-6 and 10^-5 gram/heart were 4, 16 and 55%, respectively.

The test system of experiment [2] is rats (with normal blood pressure). Description: Hypotensive action, mean blood pressure of femoral artery in unanesthetized normotensive rats, oral. It is filed as in vivo. To be noted: Rattus norvegicus, read-out: % Decreases in Mean Blood Pressure [at peak effect]; for inhibition in vivo at 1 mg/kg: 1 mg/kg oral; for inhibition in vivo at 3 mg/kg: 3 mg/kg oral; for inhibition in vivo at 10 mg/kg: 10 mg/kg oral. As for the experimental part: Blood pressure of femoral artery of rats (with normal blood pressure) under unanesthetized condition was measured directly using a pressure tranducer.
The present invention compounds were given orally at doses of 1, 3 and 10 mg/kg, and changes in blood pressure were continuously recorded. Percent decreases of mean blood pressure at the peak effect were calculated. The maximum changes in mean blood pressure (%) were shown as "hypotensive action" (Table 2).
Hypotensive action of diltiazem (which is a known hypotensive drug) measured by the same method at the doses of 3, 10 and 30 mg/kg were 0, 11.2 and 33.0%, respectively. Hypotensive action of the compound of Example 4 which is one of the most representative compounds of this invention was tested using spontaneously hypertensive rats and was compared with those of Nifedipine and Diltiazem hydrochloride. The method applied was that the drugs were orally given to the rats of which systolic arterial blood pressure were higher than 180 mmHg when it was measured plethysmographically using tail arteries. (Table 3)

For `CC1=C(C(=O)OC2CCN(Cc3ccccc3)CC2)C(c2cccc([N+](=O)[O-])c2)C(P2(=O)OCCCO2)=C(C)N1` (centres unmarked) [Example 3, N-Benzyl-4-piperidinyl 2,6-dimethyl-4-(3-nitrophenyl)-5-(2-oxo-1,3,2-dioxaphosphorinan-2-yl)-1,4-dihydropyridine-3-carboxylate], in experiment [1], the activation at 0.001 mg was 18% and the activation at 0.0001 mg was 10%. In experiment [2], the inhibition in vivo at 1 mg/kg turned out to be 8.2%, the inhibition in vivo at 3 mg/kg was determined as 11.1% and the inhibition in vivo at 10 mg/kg amounted to 20.9%.

For `CCOC(=O)C1=C(C)NC(C)=C(P2(=O)OCC(C)(C)CO2)C1c1cccc([N+](=O)[O-])c1` (centres unmarked) [Example 8, Ethyl 2,6-dimethyl-5-(5,5-dimethyl-2-oxo-1,3,2-dioxaphosphorinan-2-yl)-4-(3-nitrophenyl-1)-1,4-dihydropyridine-3-carboxylate], in experiment [1], the activation at 0.001 mg worked out at 33% and the activation at 0.0001 mg was found to be 11%. In addition, in experiment [2], the inhibition in vivo at 1 mg/kg is 8.1%, the inhibition in vivo at 3 mg/kg was found to be 15.5% and the inhibition in vivo at 10 mg/kg was determined as 37.1%.

As to `CC1=C(C(=O)OCCN(C)Cc2ccccc2)C(c2cccc([N+](=O)[O-])c2)C(P2(=O)OC(C)CC(C)O2)=C(C)N1` (centres unmarked) [Example 17, 2-(N-Benzyl-N-methylamino)-ethyl 2,6-dimethyl-5-(4,6-dimethyl-2-oxo-1,3,2-dioxaphosphorinan-2-yl)-4-(3-nitrophenyl)-1,4-dihydropyridine-3-carboxylate], in experiment [1], the activation at 0.001 mg came to 23% and the activation at 0.0001 mg stood at 10%. Also, in experiment [2], the inhibition in vivo at 1 mg/kg was 24.8%, the inhibition in vivo at 3 mg/kg is 36.8% and the inhibition in vivo at 10 mg/kg was 47%.

As for `CCC1(CC)COP(=O)(C2=C(C)NC(C)=C(C(=O)OCCN(C)Cc3ccccc3)C2c2cccc([N+](=O)[O-])c2)OC1` (centres unmarked) [Example 22, 2-(N-Benzyl-N-methylamino)-ethyl 5-(5,5-diethyl-2-oxo-1,3,2-dioxaphosphorinan-2-yl)-2,6-dimethyl-4-(3-nitrophenyl)-1,4-dihydropyridine-3-carboxylate], in experiment [1], the activation at 0.001 mg was 31% and the activation at 0.0001 mg amounted to 21%. For the same molecule, in experiment [2], the inhibition in vivo at 1 mg/kg was determined as 7.3%, the inhibition in vivo at 3 mg/kg stood at 10.4% and the inhibition in vivo at 10 mg/kg was 18.4%.

Consider `CCC1COP(=O)(C2=C(C)NC(C)=C(C(=O)OCCN(C)Cc3ccccc3)C2c2cccc([N+](=O)[O-])c2)OC1` (centres unmarked) [Example 29, 2-(N-Benzyl-N-methylamino)-ethyl 5-(5-ethyl-2-oxo-1,3,2-dioxaphosphorinan-2-yl)-2,6-dimethyl-4-(3-nitrophenyl)-1,4-dihydropyridine-3-carboxylate], for which, in experiment [1], the activation at 0.001 mg was 59% and the activation at 0.0001 mg stood at 34%.

Consider `CCC1COP(=O)(C2=C(C)NC(C)=C(C(=O)OC)C2c2ccccc2[N+](=O)[O-])OC1` (centres unmarked) [Example 30, Methyl 5-(5-ethyl-2-oxo-1,3,2-dioxaphosphorinan-2-yl)-2,6-dimethyl-4-(2-nitrophenyl)-1,4-dihydropyridine-3-carboxylate], for which, in experiment [1], the activation at 0.001 mg amounted to 26% and the activation at 0.0001 mg worked out at 13%.

As to `CCOC(=O)C1=C(C)NC(C)=C(P2(=O)OCC(C(C)C)CO2)C1c1cccc([N+](=O)[O-])c1` (centres unmarked) [Example 32, Ethyl 2,6-dimethyl-4-(3-nitrophenyl)-5-(5-isopropyl-2-oxo-1,3,2-dioxaphosphorinan-2-yl)-1,4-dihydropyridine-3-carboxylate], in experiment [1], the activation at 0.001 mg turned out to be 77% and the activation at 0.0001 mg was 24%. Further, in experiment [2], the inhibition in vivo at 1 mg/kg came to 7.8%, the inhibition in vivo at 3 mg/kg worked out at 21.2% and the inhibition in vivo at 10 mg/kg was determined as 30.5%.

For `COC(=O)C1=C(C)NC(C)=C(P2(=O)OCC(C(C)C)CO2)C1c1ccccc1[N+](=O)[O-]` (centres unmarked) [Example 34, Methyl 2,6-dimethyl-5-(5-isopropyl-2-oxo-1,3,2-dioxaphosphorinan-2-yl)-4-(2-nitrophenyl)-1,4-dihydropyridine-3-carboxylate], in experiment [1], the activation at 0.001 mg amounted to 38% and the activation at 0.0001 mg stood at 13%.

As for `CC1=C(C(=O)OCCN(C)Cc2ccccc2)C(c2cccc([N+](=O)[O-])c2)C(P2(=O)OCC3(CCC3)CO2)=C(C)N1` (centres unmarked) [Example 37, 2-(N-Benzyl-N-methylamino)-ethyl-2,6-dimethyl-4-(3-nitrophenyl)-5-(7-oxo-6,8-dioxa-7-phosphaspiro(3,5)nonan-7-yl)-1,4-dihydropyridine-3-carboxylate], in experiment [1], the activation at 0.001 mg was determined as 26% and the activation at 0.0001 mg was determined as 22%.

As for `CCOC(=O)C1=C(C)NC(C)=C(P2(=O)OCC3(CCC3)CO2)C1c1ccccc1[N+](=O)[O-]` (centres unmarked) [Example 39, Ethyl 2,6-dimethyl-4-(2-nitrophenyl)-5-(7-oxo-6,8-dioxa-7-phosphaspiro(3,5)nonan-7-yl)-1,4-dihydropyridine-3-carboxylate], in experiment [1], the activation at 0.001 mg was determined as 31% and the activation at 0.0001 mg was found to be 12%.

Consider `COC(=O)C1=C(C)NC(C)=C(P2(=O)OCC3(CCCCC3)CO2)C1c1cccc([N+](=O)[O-])c1` (centres unmarked) [Example 40, Methyl 2,6-dimethyl-4-(3-nitrophenyl)-5-(3-oxo-2,4-dioxa-3-phosphoaspiro(5,5)undecan-3-yl)-1,4-dihydropyridine-3-carboxylate], for which, in experiment [1], the activation at 0.001 mg was determined as 82% and the activation at 0.0001 mg turned out to be 29%.

`CCOC(=O)C1=C(C)NC(C)=C(P2(=O)OCC3(CCCCC3)CO2)C1c1ccccc1[N+](=O)[O-]` (centres unmarked) [Example 43, Ethyl 2,6-dimethyl-4-(2-nitrophenyl)-5-(3-oxo-2,4-dioxa-3-phosphaspiro(5,5)undecan-3-yl)-1,4-dihydropyridine-3-carboxylate]: in experiment [1], the activation at 0.001 mg was 56% and the activation at 0.0001 mg was 12%.

For the molecule `CCOC(=O)C1(C(=O)OCC)COP(=O)(C2=C(C)NC(C)=C(C(=O)OCCN(C)Cc3ccccc3)C2c2cccc([N+](=O)[O-])c2)OC1` (centres unmarked) [Example 45, 2-(N-Benzyl-N-methylamino)-ethyl 5-(5,5-diethoxycarbonyl-2-oxo-1,3,2-dioxaphosphorinan-2-yl)-2,6-dimethyl-4-(3-nitrophenyl)-1,4-dihydropyridine-3-carboxylate], in experiment [1], the activation at 0.001 mg was found to be 29% and the activation at 0.0001 mg came out at 10%.

For the molecule `CCOC(=O)C1(C(=O)OCC)COP(=O)(C2=C(C)NC(C)=C(C(=O)OC)C2c2ccccc2[N+](=O)[O-])OC1` (centres unmarked) [Example 46, Methyl 5-(5,5-diethoxycarbonyl-2-oxo-1,3,2-dioxaphosphorinan-2-yl)-2,6-dimethyl-4-(2-nitrophenyl)-1,4-dihydropyridine-3-carboxylate], in experiment [1], the activation at 0.001 mg stood at 19% and the activation at 0.0001 mg amounted to 12%.

As to `CC1=C(C(=O)OCCN(C)Cc2ccccc2)C(c2cccc([N+](=O)[O-])c2)C(P2(=O)OC(C)(C)C(C)(C)O2)=C(C)N1` (centres unmarked) [Example 48, 2-(N-Benzyl-N-methylamino)-ethyl 2,6-dimethyl-4-(3-nitrophenyl)-5-(2-oxo-4,4,5,5-tetramethyl-1,3,2-dioxaphospholan-2-yl)-1,4-dihydropyridine-3-carboxylate], in experiment [1], the activation at 0.001 mg came to 35% and the activation at 0.0001 mg is 13%.

Take `CCCOCCOC(=O)C1=C(C)NC(C)=C(P2(=O)OC(C)(C)C(C)(C)O2)C1c1cccc([N+](=O)[O-])c1` (centres unmarked) [Example 49, 2-n-Propoxyethyl 2,6-dimethyl-4-(3-nitrophenyl)-5-(2-oxo-4,4,5,5-tetramethyl-1,3,2-dioxaphospholan-2-yl)-1,4-dihydropyridine-3-carboxylate]: in experiment [1], the activation at 0.001 mg stood at 34% and the activation at 0.0001 mg came out at 14%.

Take `COC(=O)C1=C(C)NC(C)=C(P2(=O)OCCCO2)C1c1ccccc1C(F)(F)F` (centres unmarked) [Example 50, Methyl 2,6-dimethyl-5-(2-oxo-1,3,2-dioxaphosphorinan-2-yl)-4-(2-trifluoromethylphenyl)-1,4-dihydropyridine-3-carboxylate]: in experiment [1], the activation at 0.001 mg came out at 46% and the activation at 0.0001 mg was found to be 15%. In experiment [2], the inhibition in vivo at 1 mg/kg was 42.3%, the inhibition in vivo at 3 mg/kg stood at 44.3% and the inhibition in vivo at 10 mg/kg was determined as 47.2%.

For `COC(=O)C1=C(C)NC(C)=C(P2(=O)OCCCO2)C1c1cccc(Cl)c1Cl` (centres unmarked) [Example 56, Methyl 4-(2,3-dichlorophenyl)-2,6-dimethyl-5-(2-oxo-1,3,2-dioxaphosphorinan-2-yl)-1,4-dihydropyridine-3-carboxylate], in experiment [1], the activation at 0.001 mg is 75% and the activation at 0.0001 mg came out at 55%.

On to `CCOC(=O)C1=C(C)NC(C)=C(P2(=O)OCCCO2)C1c1cccc(Cl)c1Cl` (centres unmarked) [Example 57, Ethyl 4-(2,3-dichlorophenyl)-2,6-dimethyl-5-(2-oxo-1,3,2-dioxaphosphorinan-2-yl)-1,4-dihydropyridine-3-carboxylate], for which, in experiment [1], the activation at 0.001 mg was 17% and the activation at 0.0001 mg turned out to be 11%.
